The subject of data set [1] is HCV genotype 1a (HCV-1a) replicon cells. Description: HCV genotype 1a replicon luciferase assay (EC50). The format is cell-based, hepatitis C virus genotype 1a (H77 clone). As to conditions: 3 days, luciferase (Bright-Glo). The method in brief:
(§1)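 H77-derived 1a (K1691R, K2040R, S2204I) or Con1-derived 1b (E1202G, T1280I, K1846T) luciferase replicon cells, 8000/well, exposed 3 days at 37° C. to 6-point 5-fold dilutions (top 100, 10 or 1 nM; 0.5% DMSO), in duplicate. Bright-Glo luminescence read; EC50 from nonlinear fit of % inhibition.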
In general terms: In antiviral work, replicon cells carry a viral genome segment that copies itself.

Data set [2] has as its system HCV genotype 1b (HCV-1b) replicon cells. Description: HCV genotype 1b replicon luciferase assay (EC50). The format is cell-based, hepatitis C virus genotype 1b (Con1 clone). As to conditions: 3 days, luciferase (Bright-Glo). In a few lines: as §1
For another data set, the system named is HCV-1b replicon cells. Description: Cell Titer-fluor cell activity assay in HCV-1b replicon cells (CC50). The format is cell-based. The conditions noted are these: 3 days. The method in brief: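 Con1 genotype 1b replicon cells (E1202G, T1280I, K1846T adaptive mutations), 8000 cells/well, exposed to 6-point 5-fold dilutions from 100, 10 or 1 nM top concentration in 0.5% DMSO, duplicate wells, 3 days at 37 °C. Viability read by Cell Titer-fluor (Ex 405/Em 515 nm) after 30 min; CC50 from nonlinear fit of inhibition %.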

Nine compounds from patent US10160771B2, “Hepatitis C virus inhibitors and uses thereof in preparation of drugs” (priority 2014, dated 2018) can be followed below.

A word on the EC50: it is the concentration at which the effect is half-maximal. Read a low EC50 as an effect from little substance. What is called CC50 is the concentration that lowers cell viability or growth by half. In the case of `COC(=O)N[C@H](C(=O)N1CCCC1c1ccc(-c2ccc(-c3ccc(-c4cnc(C5CCCN5C(=O)[C@@H](NC(=O)OCCF)C(C)C)[nH]4)cc3)cc2)[nH]1)C(C)C` (stereo partly drawn) [AG_062], the results for the EC50 in data set [1] and in data set [2] were 10 to 100 nM and 0.101 to 1 nM, respectively. In the data set with HCV-1b replicon cells, this compound returned a CC50 greater than 10 nM.
Regarding `COC(=O)N[C@H](C(=O)N1CCCC1c1ccc(-c2ccc(-c3ccc(-c4cnc([C@@H]5CCCN5C(=O)[C@@H](NC(=O)OC)[C@@H](C)OC)[nH]4)cc3)cc2)[nH]1)[C@@H](C)OC` (single isomer, unassigned) [AG_072_B], the EC50 in data set [1] lay within 1 to 10 nM; in data set [2], 0.101 to 1 nM. The CC50 in the data set with HCV-1b replicon cells was greater than 1 nM.
On to `COC(=O)NC(C(=O)N1CCCC1c1[nH]c(-c2ccc(-c3ccc(-c4cnc([C@@H]5CCCN5C(=O)[C@@H](NC(=O)OC)C(C)C)[nH]4)cc3)cc2)c2c1CCC2)C1CCOC1` (single isomer, unassigned) [AG_025_B], for which the figures for the EC50 in data set [1] and in data set [2] were 10 to 100 nM and 0.001 to 0.1 nM, respectively. Moreover, the CC50 in the data set with HCV-1b replicon cells was greater than 10 nM.
Taken in the same sequence, the figures for `COC(=O)N[C@H](C(=O)N1CCC[C@H]1c1ncc(-c2ccc(-c3ccc(-c4cnc(C5C6CCC(C6)[C@@H]5C(=O)NC(C)c5cnccn5)[nH]4)cc3)cc2)[nH]1)[C@@H](C)OC` (single isomer, unassigned) [AA_281_C] were 1 to 10 nM, 0.101 to 1 nM and greater than 1 nM.
For `COC(=O)NC(C(=O)N1CCCC1c1[nH]c(-c2ccc(-c3ccc(-c4cnc([C@@H]5CCCN5C(=O)[C@@H](NC(=O)OC)C(C)C)[nH]4)cc3)cc2)c2c1CCC2)C1CCOC1` (single isomer, unassigned) [AG_025_C] the same measures were 10 to 100 nM, 0.101 to 1 nM and greater than 10 nM.
With `COC(=O)N[C@H](C(=O)N1CCC[C@H]1c1ncc(-c2ccc(-c3ccc(-c4cnc([C@H]5C6CCC(C6)[C@@H]5C(=O)NC(C)c5cccnc5)[nH]4)cc3)cc2)[nH]1)C(C)C` (single isomer, unassigned) [AA_204_C], the EC50 in data set [1] was in the range of 1 to 10 nM; in data set [2] it was 0.001 to 0.1 nM. Further, the CC50 in the data set with HCV-1b replicon cells is greater than 1 nM.
For `COC(=O)N[C@H](C(=O)N1CCC[C@H]1c1ncc(-c2ccc(-c3ccc(-c4cnc([C@H]5C6CCC(C6)[C@@H]5C(=O)NC(c5cccnc5)C(C)C)[nH]4)cc3)cc2)[nH]1)C(C)C` (single isomer, unassigned) [AA_233_C] the same measures were 10 to 100 nM, 0.101 to 1 nM and greater than 1 nM.
Regarding `COC(=O)N[C@H](C(=O)N1CC2(C[C@H]1c1ncc(-c3ccc(-c4ccc(-c5[nH]c([C@@H]6CCCN6C(=O)[C@@H](NC(=O)OC)[C@@H](C)OC)c6c5CCC6)cc4)cc3)[nH]1)OCCO2)[C@@H](C)OC` [AG_089], the EC50 in data set [1] lay in the range of 1 to 10 nM; in data set [2], 0.001 to 0.1 nM. The same compound showed a CC50 in the data set with HCV-1b replicon cells greater than 1 nM.
Taken in the same sequence, the figures for `COC(=O)N[C@H](C(=O)N1CCC[C@H]1c1ncc(-c2ccc(-c3ccc(-c4cnc(C5C6CCC(C6)[C@@H]5C(=O)N[C@H](c5cccnc5)C(C)C)[nH]4)cc3)cc2)[nH]1)[C@@H](C)OC` (stereo partly drawn) [AA_271_A] were 0.101 to 1 nM, 0.001 to 0.1 nM and greater than 1 nM.
